Patent EP4740948A1 (Dong Wha Pharm. Co., Ltd., priority 2023, dated 2025)

Columns and labels:
EZH1 = EZH1 (Homo sapiens, UniProt Q92800); assay: AlphaLISA enzyme activity inhibition, EZH1; assay type: biochemical; conditions: for inhibition at 0.005 µM: 5nM test substance; for inhibition at 0.01 µM: 10nM test substance
In short: (§1)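 Enzyme inhibition rate was calculated relative to DMSO from AlphaLISA signal, with acceptor beads added after a 2 h methylation reaction and donor beads 1 h later. Each enzyme, EZH1 or EZH2, was pre-mixed with compound (final 5 nM or 10 nM) in Tris buffer pH 8.0 before histone H3 peptide and SAM initiated the reaction.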

EZH2 = EZH2 (Homo sapiens, UniProt Q15910); assay: AlphaLISA enzyme activity inhibition, EZH2; assay type: biochemical; conditions: for inhibition at 0.005 µM: 5nM test substance; for inhibition at 0.01 µM: 10nM test substance
Chain of EZH2 (Q15910 whole entry, species assumed): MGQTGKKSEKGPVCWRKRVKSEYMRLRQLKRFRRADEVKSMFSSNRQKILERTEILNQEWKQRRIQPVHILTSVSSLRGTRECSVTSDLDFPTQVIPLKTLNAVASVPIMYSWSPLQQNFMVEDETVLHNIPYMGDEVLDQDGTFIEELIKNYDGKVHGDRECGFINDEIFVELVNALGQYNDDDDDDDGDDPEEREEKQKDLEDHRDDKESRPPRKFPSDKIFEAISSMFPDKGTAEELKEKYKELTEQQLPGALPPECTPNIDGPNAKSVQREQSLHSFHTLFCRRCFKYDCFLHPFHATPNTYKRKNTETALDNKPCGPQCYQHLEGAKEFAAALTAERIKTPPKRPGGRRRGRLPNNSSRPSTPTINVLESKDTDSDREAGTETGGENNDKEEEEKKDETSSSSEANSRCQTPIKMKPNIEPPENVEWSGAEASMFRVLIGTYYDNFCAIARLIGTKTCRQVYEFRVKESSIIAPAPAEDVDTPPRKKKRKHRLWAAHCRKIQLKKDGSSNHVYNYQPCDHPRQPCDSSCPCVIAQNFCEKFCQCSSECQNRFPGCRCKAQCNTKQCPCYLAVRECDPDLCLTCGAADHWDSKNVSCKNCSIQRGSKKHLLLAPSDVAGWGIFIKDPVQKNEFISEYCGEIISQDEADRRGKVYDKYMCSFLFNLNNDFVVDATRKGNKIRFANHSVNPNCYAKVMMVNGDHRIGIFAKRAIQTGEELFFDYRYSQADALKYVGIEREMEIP
Chain of EZH2 (O75530 whole entry partner, species assumed): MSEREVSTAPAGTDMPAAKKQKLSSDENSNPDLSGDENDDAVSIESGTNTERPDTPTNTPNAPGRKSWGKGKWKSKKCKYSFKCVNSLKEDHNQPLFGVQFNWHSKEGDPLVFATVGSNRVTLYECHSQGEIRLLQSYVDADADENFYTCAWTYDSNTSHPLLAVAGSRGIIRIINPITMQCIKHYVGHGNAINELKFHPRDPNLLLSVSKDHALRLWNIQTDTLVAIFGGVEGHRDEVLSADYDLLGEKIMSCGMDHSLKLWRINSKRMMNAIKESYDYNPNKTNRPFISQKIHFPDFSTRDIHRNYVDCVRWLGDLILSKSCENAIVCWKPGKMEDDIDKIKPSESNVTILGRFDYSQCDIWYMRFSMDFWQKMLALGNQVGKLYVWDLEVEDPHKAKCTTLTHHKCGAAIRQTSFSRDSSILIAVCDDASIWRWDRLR
Chain of EZH2 (Q15022 whole entry partner, species assumed): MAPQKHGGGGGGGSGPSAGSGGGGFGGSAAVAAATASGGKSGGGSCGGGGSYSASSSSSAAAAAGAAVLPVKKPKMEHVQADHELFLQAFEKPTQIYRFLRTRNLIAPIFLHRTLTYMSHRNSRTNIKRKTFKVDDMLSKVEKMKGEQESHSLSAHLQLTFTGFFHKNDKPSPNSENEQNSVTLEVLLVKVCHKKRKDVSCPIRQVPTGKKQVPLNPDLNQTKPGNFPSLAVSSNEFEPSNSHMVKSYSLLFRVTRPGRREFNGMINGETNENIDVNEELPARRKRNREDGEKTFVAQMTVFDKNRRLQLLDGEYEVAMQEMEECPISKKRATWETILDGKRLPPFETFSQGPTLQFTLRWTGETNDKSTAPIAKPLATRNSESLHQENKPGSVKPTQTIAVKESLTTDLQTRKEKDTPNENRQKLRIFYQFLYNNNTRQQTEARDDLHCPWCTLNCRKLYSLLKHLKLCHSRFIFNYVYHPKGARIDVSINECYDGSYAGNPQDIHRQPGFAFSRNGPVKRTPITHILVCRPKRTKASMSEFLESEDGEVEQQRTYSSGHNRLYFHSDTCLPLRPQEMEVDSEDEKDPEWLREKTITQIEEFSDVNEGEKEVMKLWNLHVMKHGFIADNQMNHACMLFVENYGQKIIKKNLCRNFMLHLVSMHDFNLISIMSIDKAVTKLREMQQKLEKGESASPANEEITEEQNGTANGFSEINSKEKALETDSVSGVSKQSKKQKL
In short: as §1

Lovo cells = assay: Cancer cell proliferation inhibition (Cell Counting Kit-8), colorectal cancer cell line; assay type: cell-based; conditions: 1000 nM, cultured seven to 11 days; for inhibition at 1 µM: Homo sapiens, LoVo, 264 h, read-out: % inhibition rate LoVo; for % inhibition rate LoVo: 1 µM
In short: (§2)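 Single-concentration test: 1000 nM compound, 7-11 day culture after seeding 100 to 1,000 cells per well in 10% FBS medium. Percent inhibition derived from Cell Counting Kit-8 signal relative to untreated control.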

G401 cells = assay: Cancer cell proliferation inhibition (Cell Counting Kit-8), rhabdoid tumor cell line; assay type: cell-based; conditions: 1000 nM, cultured seven to 11 days; for % inhibition rate G401: 1 µM; for inhibition at 1 µM: Homo sapiens, G-401, 264 h, read-out: % inhibition rate G401
In short: (§3)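 Single 1000 nM dose of test substance, applied to cells seeded at 100–1,000 per well in 10% FBS medium, then culture for seven to 11 days. CCK-8 read-out; inhibition rate expressed as percent relative to untreated control.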

MKN-45 cells = assay: Cancer cell proliferation inhibition (Cell Counting Kit-8), gastric cancer cell line; assay type: cell-based; conditions: Homo sapiens, MKN-45, 264 h, 1000 nM, cultured seven to 11 days; read-out: % inhibition rate MKN -45
In short: as §3

SW-13 cells = assay: Cancer cell proliferation inhibition (Cell Counting Kit-8), adrenal cancer cell line; assay type: cell-based; conditions: Homo sapiens, SW13, 264 h, 1000 nM, cultured seven to 11 days; read-out: % inhibition rate SW-13
In short: as §2

MIA-PaCa-2 cells = assay: Cancer cell proliferation inhibition (Cell Counting Kit-8), pancreatic cancer cell line; assay type: cell-based; conditions: Homo sapiens, MIA PaCa-2, 264 h, 1000 nM, cultured seven to 11 days; read-out: % inhibition rate MIA-Paca2
In short: as §2

NCI-H1299 cells = assay: Cancer cell proliferation inhibition (Cell Counting Kit-8), lung cancer cell line; assay type: cell-based; conditions: Homo sapiens, NCI-H1299, 264 h, 1000 nM, cultured seven to 11 days; read-out: % inhibition rate NCI-H129 9
In short: as §2

Chain of EZH1 (Q92800 whole entry, species assumed): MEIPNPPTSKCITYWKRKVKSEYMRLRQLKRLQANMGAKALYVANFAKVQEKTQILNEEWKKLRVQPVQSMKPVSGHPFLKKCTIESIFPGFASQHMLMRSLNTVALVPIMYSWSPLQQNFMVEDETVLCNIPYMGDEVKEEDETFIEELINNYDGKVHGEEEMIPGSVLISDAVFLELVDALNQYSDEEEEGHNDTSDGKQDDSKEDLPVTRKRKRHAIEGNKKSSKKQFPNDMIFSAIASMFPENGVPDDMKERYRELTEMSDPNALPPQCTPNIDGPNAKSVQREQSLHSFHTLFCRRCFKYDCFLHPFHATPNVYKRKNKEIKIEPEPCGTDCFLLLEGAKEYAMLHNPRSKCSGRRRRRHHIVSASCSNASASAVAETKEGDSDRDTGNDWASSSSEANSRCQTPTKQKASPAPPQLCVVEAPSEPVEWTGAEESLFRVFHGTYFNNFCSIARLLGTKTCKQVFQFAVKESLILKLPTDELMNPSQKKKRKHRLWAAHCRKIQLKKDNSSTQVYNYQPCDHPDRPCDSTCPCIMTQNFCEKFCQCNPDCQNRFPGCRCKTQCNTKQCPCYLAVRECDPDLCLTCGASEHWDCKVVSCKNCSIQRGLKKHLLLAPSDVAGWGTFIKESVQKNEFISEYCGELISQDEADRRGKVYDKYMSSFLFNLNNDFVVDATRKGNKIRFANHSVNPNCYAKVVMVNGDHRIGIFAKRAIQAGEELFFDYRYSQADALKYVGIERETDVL
Chain of EZH1 (O75530 whole entry partner, species assumed): as the sequence (O75530 whole entry partner, species assumed) above
Chain of EZH1 (Q15022 whole entry partner, species assumed): as the sequence (Q15022 whole entry partner, species assumed) above

Row | Compound | inhibition at 0.005 µM (EZH1) [%] | inhibition at 0.01 µM (EZH1) [%] | inhibition at 0.005 µM (EZH2) [%] | inhibition at 0.01 µM (EZH2) [%] | inhibition at 1 µM (Lovo cells) [%] | % inhibition rate G401 (G401 cells) | inhibition at 1 µM (MKN-45 cells) [%] | inhibition at 1 µM (SW-13 cells) [%] | inhibition at 1 µM (MIA-PaCa-2 cells) [%] | inhibition at 1 µM (NCI-H1299 cells) [%] | inhibition at 1 µM (G401 cells) [%] | % inhibition rate LoVo (Lovo cells)
1 | CSc1cc(C)[nH]c(=O)c1CNC(=O)c1cc(-c2ccoc2)c2c(c1C)OC(C)([C@H]1CC[C@H](N(C)C)CC1)O2 (relative stereo) [Compound 18, 2-(trans-4-(dimethylamino)cyclohexyl)-7-(furan-3-yl)-2,4-dimethyl-N-((6-methyl-4-(methylthio)-2-oxo-1,2-dihydropyridin-3-yl)methyl)benzo[d][1,3]dioxole-5-carboxamide] | 87.6 | – | 99.8 | – | ≥ 70 | – | ≤ 30 | 30 to 70 | ≤ 30 | ≤ 30 | 30 to 70 | –
2 | CSc1cc(C)[nH]c(=O)c1CNC(=O)c1cc(-c2cnc(N3CCC4(CC3)COC4)nc2)c2c(c1C)OC(C)([C@H]1CC[C@H](N(C)C)CC1)O2 (relative stereo) [Compound 15, 7-(2-(2-oxa-7-azaspiro[3.5]nonan-7-yl)pyrimidin-5-yl)-2-(trans-4-(dimethylamino)cyclohexyl)-2,4-dimethyl-N-((6-methyl-4-(methylthio)-2-oxo-1,2-dihydropyridin-3-yl)methyl)benzo[d][1,3]dioxole-5-carboxamide] | 94.5 | – | 99.8 | – | ≥ 70 | – | 30 to 70 | 30 to 70 | ≤ 30 | ≤ 30 | 30 to 70 | –
3 | CSc1cc(C)[nH]c(=O)c1CNC(=O)c1cc(-c2cnc(N3C[C@@H](C)O[C@@H](C)C3)nc2)c2c(c1C)OC(C)([C@H]1CC[C@H](N(C)C)CC1)O2 (stereo partly shown) [Compound 2] | 82 | – | 92.9 | – | 30 to 70 | – | ≤ 30 | 30 to 70 | ≤ 30 | ≤ 30 | 30 to 70 | –
4 | CSc1cc(C)[nH]c(=O)c1CNC(=O)c1cc(-c2cnc(N3CCCCC3)nc2)c2c(c1C)OC(C)([C@H]1CC[C@H](N(C)C)CC1)O2 (relative stereo) [Compound 4, 2-(trans-4-(dimethylamino)cyclohexyl)-2,4-dimethyl-N-((6-methyl-4-(methylthio)-2-oxo-1,2-dihydropyridin-3-yl)methyl)-7-(2-(piperidin-1-yl)pyrimidin-5-yl)benzo[d][1,3]dioxole-5-carboxamide] | 74 | – | 77.4 | – | ≥ 70 | – | ≤ 30 | 30 to 70 | ≤ 30 | ≤ 30 | 30 to 70 | –
5 | CSc1cc(C)[nH]c(=O)c1CNC(=O)c1cc(-c2ccc(CN3CCOCC3)cc2)c2c(c1C)OC(C)([C@H]1CC[C@H](N(C)C)CC1)O2 (relative stereo) [Compound 6, 2-(trans-4-(dimethylamino)cyclohexyl)-2,4-dimethyl-N-((6-methyl-4-(methylthio)-2-oxo-1,2-dihydropyridin-3-yl)methyl)-7-(4-(morpholinomethyl)phenyl)benzo[d][1,3]dioxole-5-carboxamide] | 86.7 | – | 98.2 | – | 30 to 70 | – | ≤ 30 | 30 to 70 | ≤ 30 | ≤ 30 | 30 to 70 | –
6 | CCCOCCN(C)[C@H]1CC[C@H](C2(C)Oc3c(-c4ccc(N5C[C@@H](C)O[C@@H](C)C5)nc4)cc(C(=O)NCc4c(SC)cc(C)[nH]c4=O)c(C)c3O2)CC1 (stereo partly drawn) [Compound 30, 7-(6-((2S,6R)-2,6-dimethylmorpholino)pyridin-3-yl)-2,4-dimethyl-2-(trans-4-(methyl(2-propoxyethyl)amino)cyclohexyl)-N-((6-methyl-4-(methylthio)-2-oxo-1,2-dihydropyridin-3-yl)methyl)benzo[d][1,3]dioxole-5-carboxamide] | 80.4 | – | 83.1 | – | ≥ 70 | – | 30 to 70 | 30 to 70 | ≤ 30 | ≤ 30 | 30 to 70 | –

Continued, in another order:

Row | inhibition at 0.005 µM (EZH1) [%] | inhibition at 0.01 µM (EZH1) [%] | inhibition at 0.005 µM (EZH2) [%] | inhibition at 0.01 µM (EZH2) [%] | Compound | inhibition at 1 µM (Lovo cells) [%] | % inhibition rate G401 (G401 cells) | inhibition at 1 µM (MKN-45 cells) [%] | inhibition at 1 µM (SW-13 cells) [%] | inhibition at 1 µM (MIA-PaCa-2 cells) [%] | inhibition at 1 µM (NCI-H1299 cells) [%] | inhibition at 1 µM (G401 cells) [%] | % inhibition rate LoVo (Lovo cells)
7 | 68.1 | 86.7 | 94.5 | 99.6 | CSc1cc(C)[nH]c(=O)c1CNC(=O)c1cc(-c2ccc(N3C[C@@H](C)O[C@@H](C)C3)nc2)c2c(c1C)OC(C)(C1CCN(CC(F)F)CC1)O2 (single isomer, unassigned) [Compound 47] | ≥ 70 | +++ (+++: ≥70%) | 30 to 70 | 30 to 70 | ≤ 30 | 30 to 70 | – | –
8 | 80.2 | 93 | 99.3 | 99.5 | CSc1cc(C)[nH]c(=O)c1CNC(=O)c1cc(-c2ccc(N3C[C@@H](C)O[C@@H](C)C3)nc2)c2c(c1C)OC(C)(C1CCN(C(C)C)CC1)O2 (single isomer, unassigned) [Compound 51] | – | +++ (+++: ≥70%) | ≤ 30 | 30 to 70 | ≤ 30 | 30 to 70 | – | +++ (+++: ≥70%)
9 | 45.3 | 78.8 | 99.2 | 99.4 | CCN1CCC(C2(C)Oc3c(-c4cnc(N(C)CC)nc4)cc(C(=O)NCc4c(SC)cc(C)[nH]c4=O)c(C)c3O2)CC1 (single isomer, unassigned) [Compound 83, 7-(2-(ethyl(methyl)amino)pyrimidin-5-yl)-2-(1-ethylpiperidin-4-yl)-2,4-dimethyl-N-((6-methyl-4-(methylthio)-2-oxo-1,2-dihydropyridin-3-yl)methyl)benzo[d][1,3]dioxole-5-carboxamide] | – | +++ (+++: ≥70%) | ≤ 30 | 30 to 70 | ≤ 30 | ≤ 30 | – | +++ (+++: ≥70%)
10 | 19.2 | 14.8 | 58.4 | 78 | CSc1cc(C)[nH]c(=O)c1CNC(=O)c1cc(-c2ccc3occc3c2)c2c(c1C)OC(C)(C1CCN(CC(F)(F)F)CC1)O2 (stereo not shown) [Compound 96, 7-(benzofuran-5-yl)-2,4-dimethyl-N-((6-methyl-4-(methylthio)-2-oxo-1,2-dihydropyridin-3-yl)methyl)-2-(1-(2,2,2-trifluoroethyl)piperidin-4-yl)benzo[d][1,3]dioxole-5-carboxamide] | ≥ 70 | – | ≤ 30 | ≤ 30 | ≤ 30 | ≤ 30 | ≤ 30 | –
11 | 73.8 | – | 94.6 | – | CSc1cc(C)[nH]c(=O)c1CNC(=O)c1cc(-c2ccc(N3C[C@@H](C)O[C@@H](C)C3)nc2)c2c(c1C)OC(C)(C1CCN(C[C@H](C)O)CC1)O2 (stereo partly drawn) [Compound 40, 7-(6-((2S,6R)-2,6-dimethylmorpholino)pyridin-3-yl)-2-(1-((S)-2-hydroxypropyl)piperidin-4-yl)-2,4-dimethyl-N-((6-methyl-4-(methylthio)-2-oxo-1,2-dihydropyridin-3-yl)methyl)benzo[d][1,3]dioxole-5-carboxamide] | 30 to 70 | – | ≤ 30 | 30 to 70 | ≤ 30 | 30 to 70 | ≥ 70 | –
12 | 75.7 | 88 | 99.2 | 99.5 | CCN1CCC(C2(C)Oc3c(-c4cnc(N5CCOCC5)nc4)cc(C(=O)NCc4c(SC)cc(C)[nH]c4=O)c(C)c3O2)CC1 (single isomer, unassigned) [Compound 73, 2-(1-ethylpiperidin-4-yl)-2,4-dimethyl-N-((6-methyl-4-(methylthio)-2-oxo-1,2-dihydropyridin-3-yl)methyl)-7-(2-morpholinopyrimidin-5-yl)benzo[d][1,3]dioxole-5-carboxamide] | 30 to 70 | +++ (+++: ≥70%) | 30 to 70 | 30 to 70 | ≤ 30 | ≤ 30 | – | –
